Measured values as given in US12673918B2, “Small molecule RPN13 inhibitors with antitumor properties” (The Johns Hopkins University, priority 2019, dated 2026).
Where two headings read alike, the source gives them in different places.

Columns and labels:
SKOV3 cells = experiment: XTT cytotoxicity assay, SKOV3; type: cell-based, human
Description: (§1) The impact of substituents of the aromatic ring on the potency of molecules was also examined. The presence of either an electron withdrawing group (EWG) or an electron donating group (EDG) influences the reactivity of a Michael acceptor towards the target protein but can also impact specificity/selectivity.

HeLa cells = experiment: XTT cytotoxicity assay, HeLa; type: cell-based, human
Description: as §1

[1] = Table 1, XTT assay, read-out: IC50 SKOV3
[2] = Table 1, XTT assay, read-out: IC50 HeLa
[3] = Table 2, read-out: IC50 SKOV3 (bridge compounds)
[4] = Table 2, read-out: IC50 HeLa (bridge compounds)

Row | SMILES | IC50 (SKOV3 cells; [1]) | IC50 (HeLa cells; [2]) | further results
1 | N#CCC(=O)NC(Cc1ccccc1)C(=O)N1CC(=Cc2ccc(Cl)c(Cl)c2)C(=O)C(=Cc2ccc(Cl)c(Cl)c2)C1 (centres unmarked) [RA190CA] | 84 nM | 51 nM | –
2 | Cl.NCCCCC(N)C(=O)NC(Cc1ccccc1)C(=O)N1CC(=Cc2ccc(Cl)c(Cl)c2)C(=O)C(=Cc2ccc(Cl)c(Cl)c2)C1 (centres unmarked) [RA310] | 446 nM | 543 nM | fold decreased potency compared to RA190 (HeLa cells; cytotoxicity, Table 1 cell lines (HeLa, SKOV3)): 3 fold
3 | CC(=O)N1C2CCC1C(=Cc1ccc(Cl)c(Cl)c1)C(=O)C2=Cc1ccc(Cl)c(Cl)c1 [RA335] | – | – | IC50 (SKOV3 cells; [3]): 251 nM; IC50 (HeLa cells; [4]): 161 nM
4 | CCCC(CCC)C(=O)NC(Cc1ccccc1)C(=O)N1CC(=Cc2ccc(Cl)c(Cl)c2)C(=O)C(=Cc2ccc(Cl)c(Cl)c2)C1 (centres unmarked) [RA190VA] | 87 nM | 74 nM | –
5 | O=C(CCl)N[C@@H](Cc1ccccc1)C(=O)N1C/C(=C\c2ccc(Cl)c(Cl)c2)C(=O)/C(=C/c2ccc(Cl)c(Cl)c2)C1 [RA371] | – | – | IC50 (SKOV3 cells; Homo sapiens, SK-OV-3, Table 1, XTT assay, read-out: IC50 SKOV3): 47 nM; IC50 (HeLa cells; Homo sapiens, HeLa, Table 1, XTT assay, read-out: IC50 HeLa): 44 nM
6 | O=C1C(=Cc2ccc(Cl)c(Cl)c2)CN(C(=O)C(Cc2ccccc2)NC(=O)N2CCOCC2)CC1=Cc1ccc(Cl)c(Cl)c1 (centres unmarked) [RA232] | 77 nM | 61 nM | –
7 | C=CC(=O)N1C2CCC1C(=Cc1ccc(Cl)c(Cl)c1)C(=O)C2=Cc1ccc(Cl)c(Cl)c1 [RA334] | – | – | IC50 (SKOV3 cells; [3]): 186 nM; IC50 (HeLa cells; [4]): 101 nM
8 | Cn1cncc1S(=O)(=O)NC(Cc1ccccc1)C(=O)N1CC(=Cc2ccc(Cl)c(Cl)c2)C(=O)C(=Cc2ccc(Cl)c(Cl)c2)C1 (centres unmarked) [RA190NMS] | 94 nM | 78 nM | –
9 | NCCCCCC(=O)NC(Cc1ccccc1)C(=O)N1CC(=Cc2ccc(Cl)c(Cl)c2)C(=O)C(=Cc2ccc(Cl)c(Cl)c2)C1 (centres unmarked) [RA190AHA] | 88 nM | 62 nM | –
10 | O=C(Nc1ccccc1)NC(Cc1ccccc1)C(=O)N1CC(=Cc2ccc(Cl)c(Cl)c2)C(=O)C(=Cc2ccc(Cl)c(Cl)c2)C1 (centres unmarked) [RA234] | 235 nM | 143 nM | –
11 | C=CC(=O)NC(Cc1ccccc1)C(=O)N1CC(=Cc2ccc([N+](=O)[O-])cc2)C(=O)C(=Cc2ccc([N+](=O)[O-])cc2)C1 (centres unmarked) [RA183Acr] | 64 nM | 49 nM | –
12 | CC(=O)NCCCCC(N)C(=O)NC(Cc1ccccc1)C(=O)N1CC(=Cc2ccc(Cl)c(Cl)c2)C(=O)C(=Cc2ccc(Cl)c(Cl)c2)C1 (centres unmarked) [RA310Ac] | 284 nM | 195 nM | –
13 | CCC(C)C(N)C(=O)N1CC(=Cc2ccc(Cl)c(Cl)c2)C(=O)C(=Cc2ccc(Cl)c(Cl)c2)C1 (centres unmarked) [RA7-Ile] | 101 nM | 72 nM | –
14 | CC(=O)NC(Cc1ccccc1)C(=O)N1CC(=Cc2ccc([N+](=O)[O-])cc2)C(=O)C(=Cc2ccc([N+](=O)[O-])cc2)C1 (centres unmarked) [RA183Ac] | 71 nM | 56 nM | –
15 | Cc1ccc(S(=O)(=O)NC(Cc2ccccc2)C(=O)N2CC(=Cc3ccc(Cl)c(Cl)c3)C(=O)C(=Cc3ccc(Cl)c(Cl)c3)C2)cc1 (centres unmarked) [RA231] | 167 nM | 111 nM | –
16 | CC(=O)N[C@@H](Cc1ccccc1)C(=O)N1C/C(=C\c2ccc(Cl)c(Cl)c2)C(=O)/C(=C/c2ccc(Cl)c(Cl)c2)C1 [RA190Ac] | 68 nM | 46 nM | –
17 | O=C1C(=Cc2ccc(Cl)c(Cl)c2)CN(C(=O)C(Cc2ccccc2)NC(=O)c2cnccn2)CC1=Cc1ccc(Cl)c(Cl)c1 (centres unmarked) [RA190PyC] | 84 nM | 65 nM | –
18 | O=C1C(=CC=Cc2ccccc2)CNCC1=CC=Cc1ccccc1 [RA-Cinn] | > 5000 nM | > 5000 nM | –
19 | C=CC(=O)N1C2CCC1C(=Cc1ccc([N+](=O)[O-])cc1)C(=O)C2=Cc1ccc([N+](=O)[O-])cc1 [RA333] | – | – | IC50 (SKOV3 cells; [3]): 167 nM; IC50 (HeLa cells; [4]): 112 nM
20 | NCC(=O)N1CC(=Cc2ccc(Cl)c(Cl)c2)C(=O)C(=Cc2ccc(Cl)c(Cl)c2)C1 [RA7-Gly] | 78 nM | 65 nM | –
21 | O=C1C(=Cc2ccc([N+](=O)[O-])cc2)CNCC1=Cc1ccc(Cl)c(Cl)c1 [RA-asy] | 398 nM | 312 nM | –
22 | O=C(O)CCC(=O)NC(Cc1ccccc1)C(=O)N1CC(=Cc2ccc(Cl)c(Cl)c2)C(=O)C(=Cc2ccc(Cl)c(Cl)c2)C1 (centres unmarked) [RA190SA] | 253 nM | 121 nM | –
23 | C=CC(=O)N1C2CCC1C(=Cc1ccc(-c3cccnc3)cc1)C(=O)C2=Cc1ccc(-c2cccnc2)cc1 [RA340] | – | – | IC50 (SKOV3 cells; [3]): 259 nM; IC50 (HeLa cells; [4]): 184 nM
24 | C=Cc1ccc(C(=O)NC(Cc2ccccc2)C(=O)N2CC(=Cc3ccc(Cl)c(Cl)c3)C(=O)C(=Cc3ccc(Cl)c(Cl)c3)C2)cc1 (centres unmarked) [RA190VBA] | 178 nM | 94 nM | –
25 | O=C1C(=Cc2ccc(Cl)c(C(F)(F)F)c2)CNCC1=Cc1ccc(Cl)c(C(F)(F)F)c1 [RA-CTF] | 457 nM | 324 nM | –
26 | CC(C)CC(N)C(=O)N1CC(=Cc2ccc(Cl)c(Cl)c2)C(=O)C(=Cc2ccc(Cl)c(Cl)c2)C1 (centres unmarked) [RA228] | 98 nM | 66 nM | –
27 | O=C1C(=Cc2ccc(O)c(O)c2)CNCC1=Cc1ccc(O)c(O)c1 [DHBC] | 788 nM | 667 nM | –
28 | O=C1C(=Cc2ccc(-c3cccnc3)cc2)C2CCC(N2)C1=Cc1ccc(-c2cccnc2)cc1 [RA332] | – | – | IC50 (SKOV3 cells; [3]): 376 nM; IC50 (HeLa cells; [4]): 243 nM

Row | SMILES | IC50 (SKOV3 cells; [1]) | IC50 (HeLa cells; [2]) | further results
29 | O=C1C(=Cc2ccc(Cl)c(Cl)c2)CN(C(=O)C(Cc2ccccc2)NC(=O)c2cccnc2)CC1=Cc1ccc(Cl)c(Cl)c1 (centres unmarked) [RA233] | 98 nM | 76 nM | –
30 | NC(Cc1ccccc1)C(=O)N1CC(=Cc2ccc(Cl)c(C(F)(F)F)c2)C(=O)C(=Cc2ccc(Cl)c(C(F)(F)F)c2)C1 (centres unmarked) [RA-CTFP] | 81 nM | 56 nM | –
31 | C=CC(=O)N1C2CCC1C(=Cc1ccccc1)C(=O)C2=Cc1ccccc1 [RA336] | – | – | IC50 (SKOV3 cells; [3]): 185 nM; IC50 (HeLa cells; [4]): 146 nM
32 | C=CC(=O)N[C@@H](Cc1ccccc1)C(=O)N1C/C(=C\c2ccc(Cl)c(Cl)c2)C(=O)/C(=C/c2ccc(Cl)c(Cl)c2)C1 [RA190 ACR] | 62 nM | 42 nM | –
33 | O=C1C(=Cc2ccc(Cl)c(Cl)c2)CNCC1=Cc1ccc(Cl)c(Cl)c1 [RA7] | 654 nM | 532 nM | –
34 | O=C1C(=Cc2ccc(Cl)c(Cl)c2)C2CCC(N2)C1=Cc1ccc(Cl)c(Cl)c1 [RA329] | – | – | IC50 (SKOV3 cells; [3]): 471 nM; IC50 (HeLa cells; [4]): 407 nM
35 | CC(C)C(N)C(=O)N1CC(=Cc2ccc(Cl)c(Cl)c2)C(=O)C(=Cc2ccc(Cl)c(Cl)c2)C1 (centres unmarked) [RA7-Val] | 72 nM | 64 nM | –
36 | O=C(CCl)NC(Cc1ccccc1)C(=O)N1CC(=Cc2csc(Br)c2)C(=O)C(=Cc2csc(Br)c2)C1 (centres unmarked) [RA-BTPCA] | 189 nM | 132 nM | –
37 | NC(Cc1ccccc1)C(=O)N1CC(=Cc2ccc(Cl)cc2)C(=O)C(=Cc2ccc(Cl)cc2)C1 (centres unmarked) [RA-4Cl] | 83 nM | 71 nM | –
38 | O=C1C(=Cc2ccc(Cl)c(Cl)c2)CN(C(=O)C(Cc2ccccc2)NC(=O)c2ccccc2)CC1=Cc1ccc(Cl)c(Cl)c1 (centres unmarked) [RA190Bn] | 121 nM | 86 nM | –
39 | CNC(=O)NC(Cc1ccccc1)C(=O)N1CC(=Cc2ccc(Cl)c(Cl)c2)C(=O)C(=Cc2ccc(Cl)c(Cl)c2)C1 (centres unmarked) [RA190MU] | 239 nM | 141 nM | –
40 | CCC(C)C(NC(=O)C(F)(F)F)C(=O)N1CC(=Cc2ccc(Cl)c(Cl)c2)C(=O)C(=Cc2ccc(Cl)c(Cl)c2)C1 (centres unmarked) [RA7-IleC] | 77 nM | 61 nM | –
41 | O=C1C(=Cc2ccc(Cl)c(Cl)c2)CN(C(=O)C(Cc2ccccc2)NC(=O)c2ccccn2)CC1=Cc1ccc(Cl)c(Cl)c1 (centres unmarked) [RA190P] | 64 nM | 55 nM | –
42 | COc1cc(C(=O)NC(Cc2ccccc2)C(=O)N2CC(=Cc3ccc(Cl)c(Cl)c3)C(=O)C(=Cc3ccc(Cl)c(Cl)c3)C2)cc(OC)c1OC (centres unmarked) [RA190TMB] | 112 nM | 94 nM | –
43 | O=C1C(=Cc2ccccc2)C2CCC(N2)C1=Cc1ccccc1 [RA330] | – | – | IC50 (SKOV3 cells; [3]): 278 nM; IC50 (HeLa cells; [4]): 239 nM
44 | O=C1C(=Cc2ccc(Cl)c(Cl)c2)CN(C(=O)C(Cc2ccccc2)NS(=O)(=O)c2ccc(-c3ccno3)s2)CC1=Cc1ccc(Cl)c(Cl)c1 (centres unmarked) [RA190IAS] | 342 nM | 211 nM | –
45 | NC(Cc1ccccc1)C(=O)N1CC(=Cc2ccc([N+](=O)[O-])cc2)C(=O)C(=Cc2ccc(Cl)c(Cl)c2)C1 (centres unmarked) [RA-asyP] | 62 nM | 48 nM | –
46 | CS(=O)(=O)NC(Cc1ccccc1)C(=O)N1CC(=Cc2ccc(Cl)c(Cl)c2)C(=O)C(=Cc2ccc(Cl)c(Cl)c2)C1 (centres unmarked) [RA190MS] | 133 nM | 86 nM | –
47 | COc1cc(C=C2CN(C(=O)C(N)Cc3ccccc3)CC(=Cc3cc(OC)c(OC)c(OC)c3)C2=O)cc(OC)c1OC (centres unmarked) [RA-TMP] | 125 nM | 78 nM | –
48 | C=CC(=O)NC(Cc1ccccc1)C(=O)N1C2CCC1C(=Cc1ccc(Cl)c(Cl)c1)C(=O)C2=Cc1ccc(Cl)c(Cl)c1 (centres unmarked) [RA339] | – | – | IC50 (SKOV3 cells; [3]): 54 nM; IC50 (HeLa cells; [4]): 46 nM
49 | CC(N)C(=O)N1CC(=Cc2ccc(Cl)c(Cl)c2)C(=O)C(=Cc2ccc(Cl)c(Cl)c2)C1 (centres unmarked) [RA7-Ala] | 92 nM | 68 nM | –
50 | NC(Cc1ccc(O)cc1)C(=O)N1CC(=Cc2ccc(Cl)c(Cl)c2)C(=O)C(=Cc2ccc(Cl)c(Cl)c2)C1 (centres unmarked) [RA295] | 116 nM | 89 nM | –
51 | O=C1C(=Cc2ccc(Cl)c(Cl)c2)CN(C(=O)C(Cc2ccccc2)NC(=O)C(F)(F)F)CC1=Cc1ccc(Cl)c(Cl)c1 (centres unmarked) [RA230] | 69 nM | 47 nM | –
52 | CC(=O)N1C2CCC1C(=Cc1ccccc1)C(=O)C2=Cc1ccccc1 [RA337] | – | – | IC50 (SKOV3 cells; [3]): 231 nM; IC50 (HeLa cells; [4]): 186 nM
53 | O=C(CCCC[C@@H]1SCC2NC(=O)NC21)N[C@@H](Cc1ccccc1)C(=O)N1C/C(=C\c2ccc(Cl)c(Cl)c2)C(=O)/C(=C/c2ccc(Cl)c(Cl)c2)C1 (some centres unmarked) [RA190B, reference compound] | – | 346 nM | –
54 | O=C1C(=Cc2ccc([N+](=O)[O-])cc2)C2CCC(N2)C1=Cc1ccc([N+](=O)[O-])cc1 [RA331] | – | – | IC50 (SKOV3 cells; [3]): 301 nM; IC50 (HeLa cells; [4]): 236 nM
55 | O=C1C(=Cc2ccc([N+](=O)[O-])cc2)CN(C(=O)C(Cc2ccccc2)NC(=O)C(F)(F)F)CC1=Cc1ccc([N+](=O)[O-])cc1 (centres unmarked) [RA183CF3] | 79 nM | 45 nM | –
